{"source": "patent US20230158005A1", "about": "(priority 2020, published 2023)", "key": {"[1]": {"system": "A/Solomon Islands/03/2006 (H1N1)", "type": "cell-based, influenza A virus"}, "[2]": {"system": "A/Hawaii/15/2001 (H1N1)", "type": "cell-based, influenza A virus"}, "[3]": {"system": "A/California/07/2009 (H1N1)", "type": "cell-based, influenza A virus"}, "[4]": {"system": "A/Minnesota/19/2011 (H1N1)", "type": "cell-based, influenza A virus"}, "[5]": {"system": "A/New Jersey/8/1976 (H1N1)", "type": "cell-based, influenza A virus"}, "[6]": {"system": "A/USSR/90/1977 (H1N1)", "type": "cell-based, influenza A virus"}, "[7]": {"system": "A/Puerto Rico/8/1934 (H1N1)", "type": "cell-based, influenza A virus"}, "[8]": {"system": "A/New Caledonia/20/1999 (H1N1)", "type": "cell-based, influenza A virus"}, "[9]": {"system": "A/Indiana/08/2011 (H3N2)", "type": "cell-based, influenza A virus"}, "[10]": {"system": "A/California/02/2014 (H3N2)", "type": "cell-based, influenza A virus"}, "[11]": {"system": "A/Texas/71/2007 (H3N2)", "type": "cell-based, influenza A virus"}, "[12]": {"system": "A/Perth/16/2009 (H3N2)", "type": "cell-based, influenza A virus"}, "[13]": {"system": "A/Fujian/413/2002 (H3N2)", "type": "cell-based, influenza A virus"}, "[14]": {"system": "A/Alaska/140/2015 (H3N2)", "type": "cell-based, influenza A virus"}, "[15]": {"system": "A/Hong Kong/156/1997 (H5N1)", "type": "cell-based, influenza A virus"}, "[16]": {"system": "A/Egypt/N6658/2011 (H5N1)", "type": "cell-based, influenza A virus"}, "[17]": {"system": "A/Vietnam/1203/2004 (H5N1)", "type": "cell-based, influenza A virus"}, "[18]": {"system": "A/Indonesia/05/2005 (H5N1)", "type": "cell-based, influenza A virus"}, "[19]": {"system": "A/Anhui/1/2013 (H7N9)", "type": "cell-based, influenza A virus"}, "[20]": {"system": "A549 human lung carcinoma cells"}}, "note": "Values joined by “and” are separate entries in the source; they are usually repeats but may differ in a detail not shown here. Identical values can stand only once.", "data": [{"smiles": "CCOC(=O)C1=C[C@@H](OC(CC)CC)[C@H](NC(C)=O)[C@@H](N)C1", "note": "[Oseltamivir, oseltamivir, reference compound]", "values": [{"measurement": "DIF (Difference from Control)", "setting": "[1]", "value": -4.25, "unit": "log10TCID50/mL"}, {"measurement": "Virus titer AVG", "setting": "[1]", "value": 3.25, "unit": "log10TCID50/mL"}, {"measurement": "Virus titer, replicates 1-3", "setting": "[1]", "value": "3.75 log10TCID50/mL and 3.25 log10TCID50/mL and 2.75 log10TCID50/mL"}, {"measurement": "DIF (Difference from Control)", "setting": "[2]", "value": -1.92, "unit": "log10TCID50/mL"}, {"measurement": "Virus titer AVG", "setting": "[2]", "value": 2.67, "unit": "log10TCID50/mL"}, {"measurement": "Virus titer, replicates 1-3", "setting": "[2]", "value": "2.75 log10TCID50/mL (2×) and 2.50 log10TCID50/mL"}, {"measurement": "DIF (Difference from Control)", "setting": "[3]", "value": -3.00, "unit": "log10TCID50/mL"}, {"measurement": "Virus titer AVG", "setting": "[3]", "value": 2.58, "unit": "log10TCID50/mL"}, {"measurement": "Virus titer, replicates 1-3", "setting": "[3]", "value": "2.75 log10TCID50/mL and 2.50 log10TCID50/mL (2×)"}, {"measurement": "DIF (Difference from Control)", "setting": "[4]", "value": -7.33, "unit": "log10TCID50/mL"}, {"measurement": "Virus titer AVG", "setting": "[4]", "value": 1.50, "unit": "log10TCID50/mL"}, {"measurement": "Virus titer, replicates 1-3", "setting": "[4]", "value": 1.50, "unit": "log10TCID50/mL"}, {"measurement": "DIF (Difference from Control)", "setting": "[5]", "value": -3.58, "unit": "log10TCID50/mL"}, {"measurement": "Virus titer AVG", "setting": "[5]", "value": 1.50, "unit": "log10TCID50/mL"}, {"measurement": "Virus titer, replicates 1-3", "setting": "[5]", "value": 1.50, "unit": "log10TCID50/mL"}, {"measurement": "DIF (Difference from Control)", "setting": "[6]", "value": -4.33, "unit": "log10TCID50/mL"}, {"measurement": "Virus titer AVG", "setting": "[6]", "value": 2.42, "unit": "log10TCID50/mL"}, {"measurement": "Virus titer, replicates 1-3", "setting": "[6]", "value": "2.50 log10TCID50/mL (2×) and 2.25 log10TCID50/mL"}, {"measurement": "DIF (Difference from Control)", "setting": "[7]", "value": -2.25, "unit": "log10TCID50/mL"}, {"measurement": "Virus titer AVG", "setting": "[7]", "value": 3.25, "unit": "log10TCID50/mL"}, {"measurement": "Virus titer, replicates 1-3", "setting": "[7]", "value": "3.75 log10TCID50/mL and 3.25 log10TCID50/mL and 2.75 log10TCID50/mL"}, {"measurement": "DIF (Difference from Control)", "setting": "[8]", "value": -5.67, "unit": "log10TCID50/mL"}, {"measurement": "Virus titer AVG", "setting": "[8]", "value": 1.50, "unit": "log10TCID50/mL"}, {"measurement": "Virus titer, replicates 1-3", "setting": "[8]", "value": 1.50, "unit": "log10TCID50/mL"}, {"measurement": "DIF (Difference from Control)", "setting": "[9]", "value": -5.08, "unit": "log10TCID50/mL"}, {"measurement": "Virus titer AVG", "setting": "[9]", "value": 3.25, "unit": "log10TCID50/mL"}, {"measurement": "Virus titer, replicates 1-3", "setting": "[9]", "value": "2.75 log10TCID50/mL and 3.75 log10TCID50/mL and 3.25 log10TCID50/mL"}, {"measurement": "DIF (Difference from Control)", "setting": "[10]", "value": -1.58, "unit": "log10TCID50/mL"}, {"measurement": "Virus titer AVG", "setting": "[10]", "value": 4.92, "unit": "log10TCID50/mL"}, {"measurement": "Virus titer, replicates 1-3", "setting": "[10]", "value": "5.25 log10TCID50/mL and 4.75 log10TCID50/mL (2×)"}, {"measurement": "DIF (Difference from Control)", "setting": "[11]", "value": -0.83, "unit": "log10TCID50/mL"}, {"measurement": "Virus titer AVG", "setting": "[11]", "value": 4.00, "unit": "log10TCID50/mL"}, {"measurement": "Virus titer, replicates 1-3", "setting": "[11]", "value": "3.50 log10TCID50/mL and 4.75 log10TCID50/mL and 3.75 log10TCID50/mL"}, {"measurement": "DIF (Difference from Control)", "setting": "[12]", "value": 0.00, "unit": "log10TCID50/mL"}, {"measurement": "Virus titer AVG", "setting": "[12]", "value": 4.25, "unit": "log10TCID50/mL"}, {"measurement": "Virus titer, replicates 1-3", "setting": "[12]", "value": 4.25, "unit": "log10TCID50/mL"}, {"measurement": "DIF (Difference from Control)", "setting": "[13]", "value": -0.58, "unit": "log10TCID50/mL"}, {"measurement": "Virus titer AVG", "setting": "[13]", "value": 2.75, "unit": "log10TCID50/mL"}, {"measurement": "Virus titer, replicates 1-3", "setting": "[13]", "value": "3.25 log10TCID50/mL and 2.50 log10TCID50/mL (2×)"}, {"measurement": "DIF (Difference from Control)", "setting": "[14]", "value": -3.83, "unit": "log10TCID50/mL"}, {"measurement": "Virus titer AVG", "setting": "[14]", "value": 2.92, "unit": "log10TCID50/mL"}, {"measurement": "Virus titer, replicates 1-3", "setting": "[14]", "value": "2.50 log10TCID50/mL (2×) and 3.75 log10TCID50/mL"}, {"measurement": "DIF (Difference from Control)", "setting": "[15]", "value": -3.08, "unit": "log10TCID50/mL"}, {"measurement": "Virus titer AVG", "setting": "[15]", "value": 1.50, "unit": "log10TCID50/mL"}, {"measurement": "Virus titer, replicates 1-3", "setting": "[15]", "value": 1.50, "unit": "log10TCID50/mL"}, {"measurement": "DIF (Difference from Control)", "setting": "[16]", "value": -3.25, "unit": "log10TCID50/mL"}, {"measurement": "Virus titer AVG", "setting": "[16]", "value": 2.08, "unit": "log10TCID50/mL"}, {"measurement": "Virus titer, replicates 1-3", "setting": "[16]", "value": "2.25 log10TCID50/mL and 1.50 log10TCID50/mL and 2.50 log10TCID50/mL"}, {"measurement": "DIF (Difference from Control)", "setting": "[17]", "value": -2.75, "unit": "log10TCID50/mL"}, {"measurement": "Virus titer AVG", "setting": "[17]", "value": 5.17, "unit": "log10TCID50/mL"}, {"measurement": "Virus titer, replicates 1-3", "setting": "[17]", "value": "5.25 log10TCID50/mL and 5.50 log10TCID50/mL and 4.75 log10TCID50/mL"}, {"measurement": "DIF (Difference from Control)", "setting": "[18]", "value": -3.50, "unit": "log10TCID50/mL"}, {"measurement": "Virus titer AVG", "setting": "[18]", "value": 4.58, "unit": "log10TCID50/mL"}, {"measurement": "Virus titer, replicates 1-3", "setting": "[18]", "value": "4.75 log10TCID50/mL and 4.50 log10TCID50/mL (2×)"}, {"measurement": "DIF (Difference from Control)", "setting": "[19]", "value": -2.25, "unit": "log10TCID50/mL"}, {"measurement": "Virus titer AVG", "setting": "[19]", "value": 1.50, "unit": "log10TCID50/mL"}, {"measurement": "Virus titer, replicates 1-3", "setting": "[19]", "value": 1.50, "unit": "log10TCID50/mL"}, {"measurement": "% Dif (absorbance as percent relative to the vehicle control, relative viability)", "setting": "[20]", "value": 83.88, "unit": "%"}]}]}
